Source: patent publication US20200368315A1, “ANTIMICROBIAL PEPTIDES AND ADMIXTURES THEREOF SHOWING ANTIMICROBIAL ACTIVITY AGAINST GRAM-NEGATIVE PATHOGENS” (priority 2017, published 2020)
≈ marks a conversion by molar mass, not a printed value.

Columns and labels:
[1] = in vitro; details: human
Protocol: ATP levels were measured by adding 50 μL of CellTiter-Glo reagent to each well and after 5 minutes of incubation luminescence was measured with SpectraMax i3.
96-well plates were seeded with HEK293 cells at concentration of 30,000 cells per well in 100 μL of DMEM growth media supplemented with 1% NEAA and 10% FBS. Border wells were filled with 100 μL of sterile PBS. The next day compounds were added to cells. Compounds were first 2× diluted in 96-well V-bottom plate in PBS. After that compounds were mixed with media in 96-deep-well plate for final concentrations. Growth media from 3 plates was aspirated and replaced with 100 μL of prepared compounds. Compounds were tested in duplicate. ATP levels were measured by adding 50 μL of CellTiter-Glo reagent to each well and after 5 minutes of incubation luminescence was measured with SpectraMax i3. […] The potential effects were then calculated and presented as IC50 values (μg/mL).

[2] = test system: Escherichia coli B1927, clinical isolate; assay: microbe, parasite or virus in culture; details: B1927, clinical isolate
Protocol: (§1) Testing was performed according to CLSI (Clinical Laboratory Standards Institute) guidelines. Read out of the study was determination of MIC—minimal inhibitory concentration expressed in μg/mL.
(§2) Out of these PBS solutions, 76.8 μL was transferred to 1423.2 μL of MH media in deep well for testing compound alone. […] Out of these working solutions 100 μL were transferred to wells in the third column of 96-well assay plates. Assay plates were previously filled with 50 μL of MH media in all wells except for the wells in the third column.
(§3) Microorganisms used were all revived from skim milk storage at −70° C. by plating them on MH agar plates. The following day a single colony of each microorganism was again streaked on fresh agar plates. The next day, using direct colony suspension method, broth solutions that achieve turbidity equivalent to 0.5 McFarland standard for each microorganism were prepared. […] Out of these suspensions, actual inoculums were prepared by diluting them 100× with MH media giving final microorganism count of 2-8×10^5 CFU/mL. For each strain of microorganisms, 20 mL of these inoculum solutions were prepared. From the second to the twelfth column of 96-well plates, 50 μL of these solutions were transferred per well. To the first column, 50 μL per well of pure growth media was added. In this manner the first column was used as sterility control of media used, the second column was used as control of microorganism's growth and the rest of the plate was used for MIC determination. All plates were incubated for 16-24 h at 37° C.
(§4) MIC value was determined by visual inspection of bacterial growth within 96-well plates. The first column in which there was no visible growth of bacteria was determined as MIC value for peptide or combination tested in that particular row.

[3] = test system: Acinetobacter baumannii ATCC BAA-1605; assay: microbe, parasite or virus in culture; details: ATCC BAA-1605
Protocol: as §1, §2, §3, §4

[4] = test system: Acinetobacter baumannii B2026, clinical isolate; assay: microbe, parasite or virus in culture; details: B2026, clinical isolate
Protocol: as §1, §2, §3, §4

[5] = test system: Pseudomonas aeruginosa ATCC BAA-2108; assay: microbe, parasite or virus in culture; details: ATCC BAA-2108
Protocol: as §1, §2, §3, §4

[6] = test system: Klebsiella pneumoniae B1945, clinical isolate; assay: microbe, parasite or virus in culture; details: B1945, clinical isolate
Protocol: as §1, §2, §3, §4

[7] = test system: Escherichia coli ATCC BAA-2452; assay: microbe, parasite or virus in culture; details: ATCC BAA-2452
Protocol: as §1, §2, §3, §4

[8] = test system: Pseudomonas aeruginosa B1954, clinical isolate; assay: microbe, parasite or virus in culture; details: B1954, clinical isolate
Protocol: as §1, §2, §3, §4

[9] = test system: Klebsiella pneumoniae ATCC BAA-2524; assay: microbe, parasite or virus in culture; details: ATCC BAA-2524
Protocol: as §1, §2, §3, §4

[10] = test system: Escherichia coli ATCC 25922; assay: microbe, parasite or virus in culture; type: cell-based; details: ATCC 25922
Protocol: as §1, §2, §3, §4

[11] = test system: Pseudomonas aeruginosa ATCC 27853; assay: microbe, parasite or virus in culture; type: cell-based; details: ATCC 27853
Protocol: as §1, §2, §3, §4

[12] = test system: Klebsiella pneumoniae ATCC 700603; assay: microbe, parasite or virus in culture; type: cell-based; details: ATCC 700603
Protocol: as §1, §2, §3, §4

[13] = test system: Acinetobacter baumannii ATCC 17978; assay: microbe, parasite or virus in culture; type: cell-based; details: ATCC 17978
Protocol: as §1, §2, §3, §4

Compound	IC50 [1] [µg/mL]	MIC [2] [µg/mL]	MIC [3] [µg/mL]	MIC [4] [µg/mL]	MIC [5] [µg/mL]	MIC [6] [µg/mL]	MIC [7] [µg/mL]	MIC [8] [µg/mL]	MIC [9] [µg/mL]	MIC [10] [µg/mL]	MIC [11] [µg/mL]	MIC [12] [µg/mL]	MIC [13] [µg/mL]
CC[C@@H](C)[C@@H](NC(=O)[C@@H](CCCNC(=N)N)NC(=O)[C@@H](CCCNC(=N)N)NC(=O)[C@@H](Cc1ccccc1)NC(=O)[C@@H](CC(C)C)NC(=O)[C@@H](CCCNC(=N)N)NC(=O)[C@H](N)CCCNC(=N)N)C(=O)N[C@H](CC(C)C)C(=O)N[C@H](CCCNC(=N)N)C(=O)N[C@H](Cc1c[nH]c2ccccc12)C(=O)N[C@H](CC(C)C)C(N)=O [D6]	52.1 (≈ 32.9 µM)	2	8	4	8	8	2	4	4	2	4	4	2
CC[C@@H](C)[C@@H](NC(=O)[C@H](N)CCCNC(=N)N)C(=O)N[C@@H](C(=O)N[C@H](CCC(N)=O)C(=O)N[C@H](CCCNC(=N)N)C(=O)N[C@@H](C(=O)N[C@H](CCCCN)C(=O)N[C@H](CCCCN)C(=O)N[C@H](Cc1c[nH]c2ccccc12)C(=O)N[C@H](CC(C)C)C(=O)N[C@H](CCCNC(=N)N)C(N)=O)[C@H](C)CC)C(C)C [D8]	> 64	4	16	16	>128	32	8	128	>128	8	64	>128	16
